Where a name gives a salt, the structure may show the parent alone.
System: mice
Experiment: Acute Toxicity (lethal dose LD0)
Assay type: in vivo
Details: for DL0 I.P. (maximum dose which did not cause any mortality after 8 days): intraperitoneal

Structure (SMILES)	DL0 I.P. (maximum dose which did not cause any mortality after 8 days)	DL0 oral (maximum dose which did not cause any mortality after 8 days)
C/C=C1/CC[C@H]2[C@@H]3CC[C@H]4C[C@H](N)CC[C@]4(C)[C@H]3CC[C@]12C [Example 1, (Z) 3α-amino-Δ^17(20) -5α-pregnene hydrochloride]	100 mg/kg	≥ 400 mg/kg
C[C@H](O)[C@@]1(O)CC[C@H]2[C@@H]3CC[C@H]4C[C@H](N)CC[C@]4(C)[C@H]3CC[C@@]21C [Example 3, (20S)3α-amino-5α-pregnane-17α,20-diol hydrochloride]	60 mg/kg	200 mg/kg
C[C@H](O)[C@H]1CC[C@H]2[C@@H]3CC[C@H]4C[C@@H](N)CC[C@@H]4[C@H]3CC[C@]12C [Example 5, (20S)3β-amino-19-nor-5α-pregnane-20-ol hydrochloride]	100 mg/kg	400 mg/kg
CC(=O)[C@@]1(O)CC[C@H]2[C@@H]3CC[C@H]4C[C@H](N)CC[C@]4(C)[C@H]3CC[C@@]21C [Example 6, 3α-amino-5α-pregnane-17α-ol-20-one hydrochloride]	60 mg/kg	≥ 400 mg/kg

— patent US4395408A, “Steroids” (Roussel Uclaf, priority 1980, dated 1983)
